Assay [1] concerns the target Prostaglandin G/H synthase 1 (Homo sapiens) (UniProt P23219). In words: Inhibition of thrombin-induced platelet aggregation above 100 uM. The class given is functional.
Assay [2] has the same target. Kind of assay: Inhibition of thrombin-induced platelet aggregation below 100 uM. The class given is functional.

This note sets out measurements from ChEMBL document CHEMBL1138141, “Pyridazines part 41: synthesis, antiplatelet activity and SAR of 2,4,6-substituted 5-(3-oxo-3-phenylprop-1-en-1-yl)- or 5-(3-phenylprop-2-enoyl)pyridazin-3(2H)-ones” (Bioorg Med Chem Lett, 2006).

Each structure is given as a SMILES string. The source made the active and inactive calls. The rule behind the calls is not given here.

Chain of Prostaglandin G/H synthase 1 (Homo sapiens) (P23219 whole entry): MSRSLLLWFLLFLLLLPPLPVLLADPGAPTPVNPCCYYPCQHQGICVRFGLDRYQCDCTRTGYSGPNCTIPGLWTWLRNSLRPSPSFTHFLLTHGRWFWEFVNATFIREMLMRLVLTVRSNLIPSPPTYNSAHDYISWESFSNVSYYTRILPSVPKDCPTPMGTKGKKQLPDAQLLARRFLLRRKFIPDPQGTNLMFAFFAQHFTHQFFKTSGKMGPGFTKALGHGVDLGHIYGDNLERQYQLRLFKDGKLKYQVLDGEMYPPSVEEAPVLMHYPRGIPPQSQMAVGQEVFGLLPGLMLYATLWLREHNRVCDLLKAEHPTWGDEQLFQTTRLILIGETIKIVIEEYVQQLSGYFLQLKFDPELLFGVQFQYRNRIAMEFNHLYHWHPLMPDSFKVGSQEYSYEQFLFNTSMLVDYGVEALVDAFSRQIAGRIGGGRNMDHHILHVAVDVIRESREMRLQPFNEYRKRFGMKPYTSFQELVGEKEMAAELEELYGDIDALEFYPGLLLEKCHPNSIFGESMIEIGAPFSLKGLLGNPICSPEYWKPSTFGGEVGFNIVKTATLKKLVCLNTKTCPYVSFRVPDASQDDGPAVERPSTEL

Consider `O=C(/C=C/c1ccccc1)c1cnn(Cc2ccccc2)c(=O)c1`, for which the result in assay [1] was Active. For the same compound, in assay [2], the outcome was inactive.
